Consider four molecules from US20190125669A1, “SYSTEMS AND METHODS FOR STEROIDAL GELS” (Children's Medical Center Corporation, priority 2016, published 2019).

Data set [1] in a line: Gelation of steroid drugs and alkaline-earth metal ion. Type of data set: physicochemical. On the set-up: key: L indicates that a liquid was formed; P indicates that a precipitate was formed; H indicates that a hydrogel was formed; L/H indicates that a mixture of a hydrogel and a liquid was formed; P->H indicates that a precipitate formed initially which converted to a hydrogel overnight. To be noted: molar ratio steroid drug:metal ion 1:1. The protocol:
The molar ratio of the steroid drug to the alkaline earth metal ion was 1:1 for all of the above samples.
Preparation of hydrogel. […] To form the DexP-hydrogel containing bupivacaine chlorhydrate (BPV), a DexP aqueous solution (100 mM) was added to a mixture of bupivacaine (10 mg/mL; approx. 30.8 mM) and Ca^2+ (100 mM) in a volume ratio of 1:2:1.

For data set [2], the system named is sciatic nerve and surrounding tissues. As to the kind of experiment: Histology: myotoxicity and inflammation scores. Type of data set: in vivo, rats. To be noted: for Inflammation (range 0-4) / Myotoxicity (range 0-6): median with 25th and 75th percentiles, bupivacaine 5.0 mg/mL. An excerpt: 4 or 14 days after injection (n=6 at each time point), the sciatic nerve and surrounding tissues were harvested and processed for histology by hematoxylin-eosin staining (FIG. 6, Table 2). Overall, tissue reaction to all formulations was relatively benign.
Histology. Rats were euthanized by carbon dioxide 4 days or 14 days after injection. The nerve and surrounding tissue were harvested and underwent standard procedures to produce hematoxylin and eosin-stained slides. The samples were scored for inflammation (0-4) and myotoxicity (0-6). The inflammation score was a subjective quantification of severity, where 0 was normal and 4 was severe inflammation. The myotoxicity score was determined by the nuclear internalization and regeneration of myocytes, two representative characteristics of local anesthetics myotoxicity. Nuclear internalization was characterized by myocytes having nuclei located away from its usual location at the periphery of the cell. Regeneration was characterized by the presence of shrunken myocytes with basophilic cytoplasm. The scoring scale was as follows: 0=normal; 1=per fascicular internalization; 2=deep internalization (>5 cell layers); 3=perifascicular regeneration; 4=deep tissue regeneration (>5 cell layers); 5=hemefascicular regeneration; 6=holofascicular regeneration.

For the next data set, the system named is sciatic nerve. As to the kind of experiment: Sciatic nerve blockade, sensory (modified hotplate test). Type of data set: in vivo, rats. Conditions: 0.3 mL at the sciatic nerve; bupivacaine 5 mg/mL (15.4 mM); DexP 25 mM where present; mean+/−SD. The protocol: Sciatic nerve blockade. Under brief isoflurane-oxygen anesthesia, the animals were injected with 0.3 mL of test material using a 23 G needle, which was introduced postero-medial to the greater trochanter until contact with bone.
Sensory nerve block was assessed by a modified hotplate test, as reported previously. The plantar surface of the rat's hind paw was placed on a pre-heated hot plate at 56° C. The time (termed thermal latency) that the animal would leave its hindpaw on the hotplate was recorded. Longer latencies reflected deeper degrees of local anesthesia. Pristine animals have latencies of about 2 s. After 12 s, the hindpaw was removed from the hotplate by the investigator to avoid tissue thermal injury or the development of hyperalgesia. Measurements were repeated 3 times at each timepoint. The duration of block was calculated as the time required for thermal latency to return to a value of 7 s from a higher value; 7 s is the midpoint between a baseline thermal latency of 2 seconds in adult rats, and a maximal latency of 12 s.

A further data set concerns C2C12 cells. As to the kind of experiment: Cell viability (MTS assay, Transwell). Conditions: 24 h exposure, hydrogels [DexP]=25 mM. Format: cell-based. The protocol:
The cytotoxicity of DexP-hydrogels ([DexP]:[Ca^2+]=2:1, 1:1, or 2:3), and free DexP were assessed by exposing C2C12 cells to them for 24 h in a Transwell® system where the gels were separated from the cells by a permeable membrane (FIG. 12) and measuring cell viability by MTS (3-(4,5-dimethylthiazol-2-yl)-5-(3-carboxymethoxyphenyl)-2-(4-sulfophenyl)-2H-tetrazolium) assay. […] The concentration of free DexP in the cell culture media incubated with the DexP-hydrogel ([DexP]:[Ca^2+]=2:1) for 24 h was 2.5 mg/mL (calculated from the release profile in FIG. 3), and the reduction of cell viability in that group was similar to that from 2.5 mg/mL of free DexP (p=0.31, p<0.005 compared to untreated cells). 25 mM DexP-hydrogels with the ratio [DexP]:[Ca^2+]=1:1 were used in subsequent experiments.
Cell viability. In vitro cell viability in the presence of DexP hydrogels was investigated in C2C12 cells (American Type Culture Collection, Manassas, Va.). In brief, C2C12 cells were grown and maintained in DMEM with 20% FBS and 1% Penicillin Streptomycin (Invitrogen, Waltham, Mass.) at 37° C. in 5% CO2. Cells were seeded into the lower chamber of 24-well Transwell® plates (Costar 3470, pore size 0.4 micrometers, Corning Incorporated, Corning, N.Y.) at 50,000 cells/mL in DMEM with 2% horse serum and 1% penicillin streptomycin and incubated for 14 days to allow differentiation into myotubes. […]
On the technique in general: Tetrazolium assays rely on reduction of a dye to a coloured formazan, in cell work by metabolically active cells.

Entries after “also recorded” stand apart in the source; their conditions may differ. Where a name gives a salt, the structure may show the parent alone.

For the molecule hydrocortisone phosphate disodium, the Gelation result in data set [1] (Ba^2+ concentration 2.5) is “L”; in data set [1] (Ba^2+ concentration 6.25), “L”; in data set [1] (Ba^2+ concentration 12.5), “P−>H”; in data set [1] (Ba^2+ concentration 25), “P−>H”; in data set [1] (Ca^2+ concentration 2.5) it was “L/H”; in data set [1] (Ca^2+ concentration 6.25), “L/H”. Besides, the Gelation entry in data set [1] (Ca^2+ concentration 12.5) and in data set [1] (Ca^2+ concentration 25) was “H” each time.
Take `CCCCN1CCCCC1C(=O)Nc1c(C)cccc1C` (centres unmarked) [Bupivacaine solution, bupivacaine hydrochloride]: the “Inflammation (range 0-4)” value in data set [2] (4 days) is 2.0 (1.0-2.5); in data set [2] (14 days), 1.0 (0.5-1.0). Besides, the figures for the “Myotoxicity (range 0-6)” value in data set [2] (4 days) and in data set [2] (14 days) were 3.0 (3.0-3.75) and 1.0 (0.5-1.0), respectively. Further, the “Tissue reaction (histology, H&E)” value in data set [2] (day 4 after injection at the sciatic nerve, listed as free bupivacaine solution, hydrochloride) is “inflammatory infiltrate consisting primarily of macrophages with lymphocytes and occasional neutrophils; also recorded: evidence of myotoxicity”; in data set [2] (day 14 after injection at the sciatic nerve), “diminished compared to reaction at day 4, almost back to normal”. For the same molecule, the “Duration of sensory blockade” value with sciatic nerve was 126 ± 38 min.
With `C[C@H]1C[C@H]2[C@@H]3CCC4=CC(=O)C=C[C@]4(C)[C@@]3(F)[C@@H](O)C[C@]2(C)[C@@]1(O)C(=O)COP(=O)(O)O` [Betamethasone phosphate, betamethasone phosphate disodium], the Gelation entry is “L” in data set [1] (Ba^2+ concentration 2.5); “L” in data set [1] (Ba^2+ concentration 6.25); “P−>H” in data set [1] (Ba^2+ concentration 12.5); “P−>H” in data set [1] (Ba^2+ concentration 25); “L/H” in data set [1] (Ca^2+ concentration 2.5); “L/H” in data set [1] (Ca^2+ concentration 6.25). The Gelation result in data set [1] (Ca^2+ concentration 12.5) and in data set [1] (Ca^2+ concentration 25) was “H” in each case.
Turning to `C[C@@H]1C[C@H]2[C@@H]3CCC4=CC(=O)C=C[C@]4(C)[C@@]3(F)[C@@H](O)C[C@]2(C)[C@@]1(O)C(=O)COP(=O)(O)O` [Dexamethasone phosphate, dexamethasone phosphate disodium], the Gelation entry in data set [1] (Ba^2+ concentration 2.5) is recorded as “L”; in data set [1] (Ba^2+ concentration 6.25) it was “L”; in data set [1] (Ba^2+ concentration 12.5) it was “P−>H”; in data set [1] (Ba^2+ concentration 25), “P−>H”; in data set [1] (Ca^2+ concentration 2.5), “L/H”; in data set [1] (Ca^2+ concentration 6.25), “L/H”. Also, the Gelation result in data set [1] (Ca^2+ concentration 12.5) and in data set [1] (Ca^2+ concentration 25) was “H” each time. Further, the “Cell viability / cytotoxicity” value in the data set on C2C12 cells is “concentration-dependent reduction of cell viability”.
